Data as given in publication PMC10441460, “Identification of Selective ATP-Competitive CMG Helicase Inhibitors for Cancer Intervention that Disrupt CMG-Replisome Function” (Research Square, 2023).

Experiments:
[1] = system: T1, human CMG helicase (Cdc45-MCM-GINS; Mcm2-7 ATPase core); assay: DNA fork-unwinding helicase assay, dose-dependent suppression; format: biochemical
T1 construct: 11-subunit hCMG holoenzyme co-expressed by baculovirus in insect cells (Cdc45, Mcm2-7, GINS); with Cdc45 and GINS (Sld5, Psf1, Psf2, Psf3)

[2] = system: T2, Nc1ncnc2c1ncn2[C@@H]1O[C@H](COP(=O)(O)OP(=O)(O)OP(=O)(O)O)[C@@H](O)[C@H]1O; assay: helicase kinetics with increasing ATP (Km); format: biochemical, Homo sapiens; conditions: Mg2+ MCM ATPase clefts formed between adjacent MCM subunit pairs
T2 construct: 11-subunit hCMG holoenzyme co-expressed by baculovirus in insect cells (Cdc45, Mcm2-7, GINS); with Cdc45 and GINS (Sld5, Psf1, Psf2, Psf3)

| Compound | DNA fork-unwinding helicase assay, dose-dependent suppression [1] | Km [2] |
| --- | --- | --- |
| Nc1ncnc2c1ncn2[C@@H]1O[C@H](COP(=O)(O)OP(=O)(O)OP(O)(O)=S)[C@@H](O)[C@H]1O [ATP-γ-S] | dose-dependent suppression of fork-unwinding activity in the presence of slow-hydrolyzable ATP-γ-S |  |
| human CMG helicase (Cdc45-MCM-GINS; Mcm2-7 ATPase core) (Homo sapiens) |  | 690 µM |
